According to patent US8093385B2, “Leukotriene B4 inhibitors” (Hoffmann-La Roche Inc., priority 2007, dated 2012):
Structures can show the parent of a compound that is named as a salt.

System: BLT1 and BLT2 receptors
Assay: Ca2+ Flux Assay for LTB4 Antagonist Assay
Type: cell-based, Human
Settings: inhibition of LTB4-induced Ca2+ flux (FLIPR), Retinoic Acid induced HL-60 cells endogenously expressing BLT1 and BLT2
Description: Ca^2+ Flux Assay for LTB4 Antagonist Assay
Seventy two hours prior to experiment cells are counted using ViaCount reagent, centrifuged and resuspended at 2.0×10^5 cells /ml density with the complete growth media containing 1 μM Retinoic Acid (Sigma).
On a day of the experiment loading buffer (Calcium-3 Assay Kit, Molecular Devices) was prepared by dissolving the contents of one vial (Express Kit) into 500 ml Hank's Balanced Salt Solution containing 20 mM HEPES and 5 mM probenecid. Equal volume of the loading buffer was mixed with the replacement buffer (Hank's Balanced Salt Solution containing 20 mM HEPES, 0.05% BSA and 5 mM probenecid). Retinoic Acid induced HL-60 cells were counted using ViaCount reagent, centrifuged and resuspended at 2.0×10^6 cells /ml density with the loading buffer/replacement buffer, dispensed into 384 well black/clear microplates (Falcon)(25 μl/well) and placed in a 37° C./5% CO2 incubator for 1 hour.
During the incubation, test compounds were prepared at 6× the desired concentration in HBSS/20 mM HEPES/0.05% BSA as well as LTB4 (Biomol) was prepared at 2.2× concentration in HBSS/20 mM HEPES/0.5% BSA buffer.
After the incubation, both the cell and compound plates were brought to the FLIPR and 5 μl of the diluted compounds were transferred to the cell plates by the FLIPR. Plates were then incubated for 30min at room temperature. After the ½ hour incubation, plates were returned to the FLIPR and 25 μl of 2.2× LTB4 was added to the cell plates. During the assay, fluorescence readings were taken simultaneously from all 384 wells of the cell plate every 1.5 seconds. Five readings were taken to establish a stable baseline, then 25 μl (LTB4) of sample was rapidly and simultaneously added to each well of the cell plate. The fluorescence was continuously monitored before, during and after sample addition for a total elapsed time of 100 seconds. Responses (increase in peak fluorescence) in each well following agonist addition was determined. The initial fluorescence reading from each well, prior to ligand stimulation, was used a zero baseline value for the data from that well. The responses are expressed as % inhibition of the neutral control (neutral control: wells that received buffer plus DMSO but no test compound).

| Compound | IC50 [nM] |
| --- | --- |
| O=C(O)CCCOc1cccc(CCCCCCOc2cc(-c3cccc(F)c3)cc(-c3ccc4c(c3)OCO4)c2)c1CCC(=O)O [Example 17, 4-{3-[6-(5-Benzo[1,3]dioxol-5-yl-3′-fluoro-biphenyl-3-yloxy)-hexyl]-2-(2-carboxy-ethyl)-phenoxy}-butyric acid bis-sodium salt] | 1.19 |

Same assay, conditions: inhibition of LTB4-induced Ca2+ flux (FLIPR), Retinoic Acid induced HL-60 cells endogenously expressing BLT1 and BLT2; read-out: IC50

| Compound | IC50 [nM] |
| --- | --- |
| O=C(O)CCCOc1cccc(CCCCCCSc2cc(-c3ccccc3)cc(-c3ccccc3)c2)c1CCC(=O)O [Example 7, 4-{2-(2-Carboxy-ethyl)-3-[6-([1,1′;3′,1″]terphenyl-5′-ylsulfanyl)-hexyl]-pheoxy}-butyric acid] | 75 |
| O=C(O)CCCOc1cccc(CCCCCCOc2cc(-c3ccsc3)cc(-c3ccc4c(c3)OCO4)c2)c1CCC(=O)O [Example 12, 4-{3-[6-(3-Benzo[1,3]dioxol-5-yl-5-thiophen-3-yl-phenoxy)-hexyl]-2-(2-carboxy-ethyl)-phenoxy}-butyric acid] | 0.21 |
| O=C(O)CCCOc1cccc(CCCCCCOc2cc(-c3ccccc3)cc(-c3ccsc3)c2)c1CCC(=O)O [Example 13, 4-{2-(2-Carboxy-ethyl)-3-[6-(5-thiophen-3-yl-biphenyl-3-yloxy)-hexyl]-phenoxy}-butyric acid] | 0.36 |
| O=C(O)CCCOc1cccc(CCCCCCOc2cc(-c3ccncc3)cc(-c3cccc(F)c3)c2)c1CCC(=O)O [Example 18, 4-{2-(2-Carboxy-ethyl)-3-[6-(3′-fluoro-5-pyridin-4-yl-biphenyl-3-yloxy)-hexyl]-phenoxy}-butyric acid] | 0.18 |
| O=C(O)CCCOc1cccc(CCCCCCOc2cc(-c3ccncc3)cc(-c3ccc4c(c3)OCO4)c2)c1CCC(=O)O [Example 20, 4-{3-[6-(3-Benzo[1,3]dioxol-5-yl-5-pyridin-4-yl-phenoxy)-hexyl]-2-(2-carboxy-ethyl)-phenoxy}-butyric acid] | 0.21 |
| Cc1cc(C(F)(F)F)c(-c2cc(OCCCCCCc3cccc(OCCCC(=O)O)c3CCC(=O)O)cc(-c3ccsc3)c2)c(=O)n1C [Example 28, 4-(2-(2-Carboxy-ethyl)-3-{6-[3-(1,6-dimethyl-2-oxo-4-trifluoromethyl-1,2-dihydro-pyridin-3-yl)-5-thiophen-3-yl-phenoxy]-hexyl}-phenoxy)-butyric acid] | 99.4 |
| O=C(O)CCCOc1cccc(CCCCCC#Cc2cc(-c3ccccc3)cc(-c3ccccc3)c2)c1CCC(=O)O [Example 48, 4-[2-(2-Carboxy-ethyl)-3-(7-[1,1′;3′,1″]terphenyl-5′-yl-hept-6-ynyl)-phenoxy]-butyric acid] | 2.69 |
| O=C(O)CCCOc1cccc(CCCCCCCc2cc(-c3ccc4c(c3)OCO4)cc(-c3ccc4c(c3)OCO4)c2)c1CCC(=O)O [Example 52, 4-[3-[7-(3,5-Bis-benzo[1,3]dioxol-5-yl-phenyl)-heptyl]-2-(2-carboxy-ethyl)-phenoxy]-butyric acid] | 42.5 |
| O=C(O)CCCOc1cccc(CCCCCCOc2cc(-c3ccsc3)cc(-c3ccsc3)c2)c1CCC(=O)O [Example 56, 4-{2-(2-Carboxy-ethyl)-3-[6-(3,5-di-thiophen-3-yl-phenoxy)-hexyl]-phenoxy}-butyric acid] | 0.58 |
| CN(C)c1ccc(-c2cc(OCCCCCCc3cccc(OCCCC(=O)O)c3CCC(=O)O)cc(-c3ccc(Cl)c(F)c3)c2)cc1 [Example 63, 4-{2-(2-Carboxy-ethyl)-3-[6-(4-chloro-4″-dimethylamino-3-fluoro-[1,1′;3′,1″]terphenyl-5′-yloxy)-hexyl]-phenoxy}-butyric acid] | 59.8 |
| Cc1cc(-c2cc(OCCCCCCc3cccc(OCCCC(=O)O)c3CCC(=O)O)cc(-c3ccc(N(C)C)cc3)c2)ccc1F [Example 65, 4-{2-(2-Carboxy-ethyl)-3-[6-(4″-dimethylamino-4-fluoro-3-methyl-[1,1′;3′,1″]terphenyl-5′-yloxy)-hexyl]-phenoxy}-butyric acid] | 0.47 |
| O=C(O)CCCOc1cccc(CCCCCCOc2cc(-c3ccccc3)cc(-c3ccc(OC(F)(F)F)cc3)c2)c1CCC(=O)O [Example 70] | 0.58 |
| COc1ccc(-c2cc(OCCCCCCc3cccc(OCCCC(=O)O)c3CCC(=O)O)cc(-c3ccc(OC)cc3)c2)cc1 [Example 88, 4-{2-(2-Carboxy-ethyl)-3-[6-(4,4″-dimethoxy-[1,1′;3′,1″]terphenyl-5′-yloxy)-hexyl]-phenoxy}-butyric acid] | 0.61 |

Further lines, results first:

| IC50 [nM] | Compound |
| --- | --- |
| 99.1 | O=C(O)CCCOc1cccc(CCCCCCNc2cc(-c3ccsc3)cc(-c3ccsc3)c2)c1CCC(=O)O [Example 35, 4-{2-(2-Carboxy-ethyl)-3-[6-(3,5-di-thiophen-3-yl-phenylamino)-hexyl]-phenoxy}-butyric acid] |
| 0.97 | O=C(O)CCCOc1cccc(CCCCCCOc2cc(-c3ccccn3)cc(-c3ccccn3)c2)c1CCC(=O)O [Example 26, 4-(2-(2-Carboxy-ethyl)-3-{6-[3,5-di-pyridin-2-yl-phenoxy]-hexyl}-phenoxy)-butyric acid] |
| 0.64 | O=C(O)CCCOc1cccc(CCCCCCOc2cc(-c3cccnc3)cc(-c3cccnc3)c2)c1CCC(=O)O [Example 4, 4-{2-(2-Carboxy-ethyl)-3-[6-(3,5-di-pyridin-3-yl-phenoxy)-hexyl]-phenoxy}-butyric acid] |
| 0.57 | O=C(O)CCCOc1cccc(CCCCCCOc2cc(-c3ccsc3)cc(-c3ccnc(Cl)c3)c2)c1CCC(=O)O [Example 15] |
| 0.39 | O=C(O)CCCOc1cccc(CCCCCCOc2cc(-c3cncnc3)cc(-c3ccsc3)c2)c1CCC(=O)O [Example 16, 4-{2-(2-Carboxy-ethyl)-3-[6-(3-pyrimidin-5-yl-5-thiophen-3-yl-phenoxy)-hexyl]-phenoxy}-butyric acid] |
| 0.25 | O=C(O)CCCOc1cccc(CCCCCCOc2cc(-c3ccccc3)cc(-c3ccccc3F)c2)c1CCC(=O)O [Example 97, 4-{2-(2-Carboxy-ethyl)-3-[6-(2-fluoro-[1,1′;3′,1″]terphenyl-5′-yloxy)-hexyl]-phenoxy}-butyric acid] |
| 0.23 | O=C(O)CCCOc1cccc(CCCCCCOc2cc(-c3ccncc3)cc(-c3ccc4c(c3)OCCO4)c2)c1CCC(=O)O [Example 24, 4-(2-(2-Carboxy-ethyl)-3-{6-[3-(2,3-dihydro-benzo[1,4]dioxin-6-yl)-5-pyridin-4-yl-phenoxy]-hexyl}-phenoxy)-butyric acid] |
| 0.21 | O=C(O)CCCOc1cccc(CCCCCCOc2cc(-c3ccccc3)cc(-c3ccccc3)c2)c1CCC(=O)O [Example 2, 4-{2-(2-Carboxy-ethyl)-3-[6-([1,1′,3,1″]terphenyl-5′-yloxy)-hexyl]-phenoxy}-butyric acid] |
| 0.2 | O=C(O)CCCOc1cccc(CCCCCCOc2cc(-c3ccncc3)cc(-c3ccsc3)c2)c1CCC(=O)O [Example 14, 4-{2-(2-Carboxy-ethyl)-3-[6-(3-pyridin-4-yl-5-thiophen-3-yl-phenoxy)-hexyl]-phenoxy}-butyric acid] |
| 0.17 | O=C(O)CCCOc1cccc(CCCCCCOc2cc(-c3ccnc(F)c3)cc(-c3ccnc(F)c3)c2)c1CCC(=O)O [Example 3, 4-[3-{6-[3,5-Bis-(2-fluoro-pyridin-4-yl)-phenoxy]-hexyl}-2-(2-carboxy-ethyl)-phenoxy]-butyric acid] |
| 0.07 | O=C(O)CCCOc1cccc(CCCCCCOc2cc(-c3ccncc3)cc(-c3ccncc3)c2)c1CCC(=O)O [Example 1, 4-{2-(2-Carboxy-ethyl)-3-[6-(3,5-di-pyridin-4-yl-phenoxy)-hexyl]-phenoxy}-butyric acid] |
